The test system of this test is MDA-MB-468 breast. The test can be described thus: NCI anticancer screen, dose series, 48 h.

Several values for one entry are separate records, joined by “and”; a condition that tells them apart may be missing. Equal entries are not always repeated.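 Briefly, cells in 96-well plates were exposed to five compound concentrations for 48 h, and endpoints were estimated by linear interpolation. GI50 is the concentration that inhibits growth by half. Definition used: TGI = concentration required for complete inhibition of growth.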 Where only a bound is given, the exact number is not on record here.

Regarding `O=CN1N=C(c2ccc(Nc3ccnc4cc(Cl)ccc34)cc2)CC1c1ccc(Cl)cc1` (stereo not given), the GI50 was 0.318 µM and the TGI stood at 8.33 µM. For `c1ccc(/C(=N\Nc2ccc3ccccc3n2)c2ccccn2)cc1` the same measures were 0.364 µM and 5.82 µM.

With `CCc1nc(N)nc(N)c1C#CC(C)c1cc(-c2ccnc(C)c2)c2oc(C)nc2c1` (stereo not given), the GI50 was 0.103 µM and the TGI was determined as 3 µM. In the case of `Cc1ccccc1NC(=O)c1cc2ccccc2cc1O`, the GI50 is 2.64 µM and the TGI stood at 7.89 µM. For `CNc1ncc2cc(Oc3ccc(F)cc3F)c(=O)n(C)c2n1` the same measures were above 25 µM and above 25 µM.

For the molecule `COc1ccc2c(c1)C=C1CSCC3=Cc4cc(OC)ccc4OC13O2`, the GI50 is 0.347 µM. As for `O=C1C=C(OCCCl)C(=O)c2c(O)ccc(O)c21`, the GI50 was 1.64 µM and the TGI turned out to be 3.86 µM.

On to `N/C(=N\c1nc2c(Br)cccc2s1)C(Br)Br`, for which the GI50 is 2.57 µM and the TGI came out at 9.69 µM. As for `O=[N+]([O-])c1cc2c(ccc3occc32)o1`, the GI50 was 3.18 µM and the TGI worked out at 17.1 µM. For `COC(=O)Nc1nc2ccc(S(=O)(=O)c3ccc(NC(=O)Nc4cc(C(F)(F)F)ccc4F)cc3)cc2[nH]1` the same measures were above 25 µM and above 25 µM. On the same counts, the results for `CC1=NN(C(=O)c2nn(-c3ccc(Cl)cc3)cc2O)C(=O)C1` are 4.92 µM and 97 µM. For `O=C1NC(SCc2ccc(F)cc2)=N/C1=C/c1cccc(OCc2ccc(Cl)cc2)c1` the same measures were 15.8 µM and above 100 µM. `COc1cc(NC(=O)c2cc(O)c(C/C=C(\C)CCC=C(C)C)c(O)c2)cc2c1O[C@]1(C)CC[C@@H](O)C(C)(C)[C@H]1C2`: the GI50 was 2 µM and the TGI came out at 8.08 µM. In the case of `CN(C)c1ncnc2c1ccn2C1OC(CO)C(O)C1O` (stereo not given), the GI50 is 0.231 µM and the TGI amounted to 1 µM. On the same counts, the results for `Cn1ncnc1C1c2n[nH]c(=O)c3cc(F)cc(c23)NC1c1ccc(F)cc1` (stereo not given) are 3.74 µM and above 100 µM. On the same counts, the results for `COc1cc2c3c(n(CCCNCC4CC4)c(=O)c2cc1OC)-c1cc2c(cc1C3=O)OCO2` are 1.54 µM and 9.66 µM. On the same counts, the results for `Oc1ccc(O)c2c1C1(Cl)C(Cl)=C(Cl)C2(Cl)C1(Cl)Cl` are 3.71 µM and 12.8 µM.

`COc1ccc(CN=C(N)N=C(N)N)cc1OC`: the GI50 was 47.6 µM and the TGI turned out to be 477 µM. On the same counts, the results for `CCCCN(CCCC)CCC(O)c1cc2ccc(C(F)(F)F)cc2c2cc(C(F)(F)F)ccc12` (stereo not given) are 1.68 µM and 3.46 µM.

As for `Cc1ccc(S(=O)(=O)Nc2cc(Sc3ccccc3)c(O)c3ccccc23)cc1`, the GI50 was 1.38 µM and the TGI was 3.36 µM. On the same counts, the results for `NCCSC(C[N+](=O)[O-])c1ccccc1Cl` (stereo not given) are 2.38 µM and 6.5 µM. On the same counts, the results for `CNC(=O)c1cncc(/C=C/c2c(Cl)cccc2Cl)c1` are 4.08 µM and above 19.1 µM.

Take `Nc1nc(Cl)nc2c1ncn2[C@@H]1O[C@H](COS(N)(=O)=O)[C@@H](O)[C@H]1O`: the GI50 was 0.0176 µM; the TGI was 0.0468 µM and 0.0396 µM. As for `CCc1c2c(nc3ccc(OCc4ccc(B5OC(C)(C)C(C)(C)O5)cc4)cc13)-c1cc3c(c(=O)n1C2)COC(=O)[C@]3(O)CC`, the GI50 is below 0.01 µM and the TGI came to 0.0432 µM. For `Cc1ccc(-c2c3c(N)c4c(nc3nc3c2c(C)nn3-c2ccccc2)CCC4)cc1` the same measures were 1.97 µM and 5.15 µM. For `COc1cc2nc(N3CCC[C@@H](NC4=CC(=O)c5ccccc5C4=O)C3)nc(N)c2cc1OC` the same measures were 1.81 µM and 3.77 µM. Take `CN(CCCN(C)CCC1CCCCC1)CCC1CCCCC1`: the GI50 is 1.3 µM and the TGI was determined as 2.66 µM. On the same counts, the results for `CCCC(CCC)C(=O)OCC1(CO)C/C(=C\c2ccc(C(F)(F)F)cc2)C(=O)O1` (stereo not given) are 16.6 µM and 32.9 µM.

Take `O=C(CN1C(=O)S/C(=C\C(Cl)=C\c2ccccc2)C1=O)NCCCn1ccnc1`: the GI50 is 1.35 µM and the TGI was determined as 4.19 µM.

Consider `NS(=O)(=O)c1ccc(N2N=C(c3cccs3)CC2c2ccccc2O)cc1` (stereo not given), for which the GI50 is 0.717 µM and the TGI came out at 3.89 µM. For `O=C(N/N=C/c1ccc(Br)s1)c1[nH]c2ccc(Br)cc2c1-c1ccccc1` the same measures were 0.327 µM and 4.89 µM. On the same counts, the results for `O=C1COCCN1c1ccc(NCc2cn(C(=O)c3ccc(Cl)cc3)c3ccccc23)cc1` are 0.101 µM and 0.286 µM. On the same counts, the results for `CN(C)N=Nc1nn(C(=O)Nc2ccc(Cc3ccccc3)cc2)c2ccccc12` are 2.94 µM and above 100 µM. For `Cc1c(C(N)=O)sc2c1c(=O)n(Cc1ccccc1)c1nnc(S(=O)(=O)CC(=O)Nc3ccc(Cl)cc3)n21`, the GI50 was 12.7 µM and the TGI is 36.3 µM. For `O=c1[nH]nc(-c2ccccc2)c2c(-c3ccccc3)onc12` the same measures were 0.424 µM and above 100 µM.

Turning to `Nc1ccc(-c2nnc(SCc3ccc(O)c4ncccc34)n2-c2ccccc2)cc1`, the GI50 is 0.0358 µM and the TGI was 1.85 µM. Take `O=C(Cn1c2ccccc2c2ccncc21)N/N=C\c1ccc2ccccc2c1`: the GI50 was 24.4 µM and the TGI worked out at 65.5 µM.

For `C=C1C(=O)O[C@H]2[C@H]1CC/C(CNC(=O)/C=C/c1ccc(Cl)cc1Cl)=C\CC[C@@]1(C)O[C@@H]21`, the GI50 was 0.396 µM and the TGI was 1.47 µM.
